Measured values taken from patent US8030300B2, “Ligands for nicotinic acetylcholine receptors, and methods of making and using them” (priority 2003, dated 2011).
Read-outs that look alike come from different tables or passages of the source.

Legend:
Assay in all cases: biochemical
Assay type in all cases: binding
[1] = target: T1, receptors in rat forebrain (mainly α4β2) (Rattus norvegicus, UniProt P09483+P12390)
T1 construct: from tissue; host or cells: rat forebrain homogenate
From the text: (§1) In order to assess the steric and hydropathic effects of the C-5 substituents of the pyridine on the binding affinity and subtype-selectivity at neuronal nicotinic acetylcholine receptors. […] The binding affinity ratios for a ligand, calculated from its affinities at an α subunit paired with either the β2 osubunit or the β4 subunit, represents a measure of the selectivity of that ligand with regard to the β subunits.
In Vitro Inhibition of ^3H-Epibatidin Binding
The high affinity binding site for ^3H-epibatidin is most certainly binding to the α4β2 subtype of nicotinic receptors. The identity of the low affinity site is still believed to be unknown.
Tissue preparation: Preparations may be performed at 0-4° C. unless otherwise indicated. […] The tissue suspension may then be centrifuged at 27,000×g for 10 min. The supernatant is then discarded and the pellet may then be washed three times by centrifugation at 27,000×g for 10 min in 20 mL fresh buffer, and the final pellet may be resuspended in fresh buffer (400 mL per g of original tissue) and used for binding assays.
Assay: Aliquots of 2.0 mL homogenate may be added to 0.100 mL of test solution and 0.100 mL of ^3H-epibatidin (0.3 nM, final concentration), mixed and incubated for 60 min at room temperature. […] The amount of radioactivity on the filters may be determined by conventional liquid scintillation counting. Specific binding is total binding minus non-specific binding.

α2β2 nAChR subtype = target: T2, α2β2 nAChR subtype (Rattus norvegicus, UniProt P12389+P12390)
T2 construct: expressed in transfected cells
From the text: as §1

α2β4 nAChR subtype = target: T3, α2β4 nAChR subtype (Rattus norvegicus, UniProt P12389+P12392)
T3 construct: expressed in transfected cells
From the text: as §1

α4β2 nAChR subtype = target: T4, α4β2 nAChR subtype (Rattus norvegicus, UniProt P09483+P12390)
T4 construct: expressed in transfected cells
From the text: as §1

α4β4 nAChR subtype = target: T5, α4β4 nAChR subtype (Rattus norvegicus, UniProt P09483+P12392)
T5 construct: expressed in transfected cells
From the text: as §1

α3β4 nAChR subtype = target: T6, α3β4 nAChR subtype (Rattus norvegicus, UniProt P04757+P12392)
T6 construct: expressed in transfected cells
From the text: as §1

α3β2 nAChR subtype = target: T7, α3β2 nAChR subtype (Rattus norvegicus, UniProt P04757+P12390)
T7 construct: expressed in transfected cells
From the text: as §1

[2] = Ki α4β2*, Table 5, *Rat forebrain, mainly α4β2
[3] = Ki α2β2, Table 5, rat nAChR subtypes
[4] = Ki α2β4, Table 5, rat nAChR subtypes
[5] = Table 3, mean ± SEM of 3 (nicotine, 1: 3 to 6) independent measurements, read-out: Ki α2β4
[6] = Ki α4β2, Table 5, rat nAChR subtypes
[7] = Table 3, mean ± SEM of 3 (nicotine, 1: 3 to 6) independent measurements, read-out: Ki α4β2
[8] = Table 3, mean ± SEM of 3 (nicotine, 1: 3 to 6) independent measurements, read-out: Ki α4β4
[9] = Ki α3β4, Table 5, rat nAChR subtypes
[10] = Table 3, mean ± SEM of 3 (nicotine, 1: 3 to 6) independent measurements, read-out: Ki α3β4
[11] = Ki α3β2, Table 5, rat nAChR subtypes
[12] = Table 3, mean ± SEM of 3 (nicotine, 1: 3 to 6) independent measurements, read-out: Ki α3β2
[13] = Ki α4β4, Table 5, rat nAChR subtypes

T4 sequence (P12390 25-500): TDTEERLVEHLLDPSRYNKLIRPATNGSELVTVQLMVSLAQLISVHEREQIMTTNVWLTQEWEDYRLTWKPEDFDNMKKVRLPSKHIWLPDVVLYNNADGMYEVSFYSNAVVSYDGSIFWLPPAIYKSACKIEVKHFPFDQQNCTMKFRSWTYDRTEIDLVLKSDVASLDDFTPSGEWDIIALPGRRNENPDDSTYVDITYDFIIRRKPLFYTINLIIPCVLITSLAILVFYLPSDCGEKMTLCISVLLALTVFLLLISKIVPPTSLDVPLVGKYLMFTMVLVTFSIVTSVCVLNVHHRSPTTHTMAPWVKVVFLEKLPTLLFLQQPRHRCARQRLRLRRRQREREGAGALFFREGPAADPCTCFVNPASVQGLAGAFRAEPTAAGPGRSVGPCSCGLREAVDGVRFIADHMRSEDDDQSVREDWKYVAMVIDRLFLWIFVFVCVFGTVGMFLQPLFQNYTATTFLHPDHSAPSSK
T4 sequence (P09483 31-630): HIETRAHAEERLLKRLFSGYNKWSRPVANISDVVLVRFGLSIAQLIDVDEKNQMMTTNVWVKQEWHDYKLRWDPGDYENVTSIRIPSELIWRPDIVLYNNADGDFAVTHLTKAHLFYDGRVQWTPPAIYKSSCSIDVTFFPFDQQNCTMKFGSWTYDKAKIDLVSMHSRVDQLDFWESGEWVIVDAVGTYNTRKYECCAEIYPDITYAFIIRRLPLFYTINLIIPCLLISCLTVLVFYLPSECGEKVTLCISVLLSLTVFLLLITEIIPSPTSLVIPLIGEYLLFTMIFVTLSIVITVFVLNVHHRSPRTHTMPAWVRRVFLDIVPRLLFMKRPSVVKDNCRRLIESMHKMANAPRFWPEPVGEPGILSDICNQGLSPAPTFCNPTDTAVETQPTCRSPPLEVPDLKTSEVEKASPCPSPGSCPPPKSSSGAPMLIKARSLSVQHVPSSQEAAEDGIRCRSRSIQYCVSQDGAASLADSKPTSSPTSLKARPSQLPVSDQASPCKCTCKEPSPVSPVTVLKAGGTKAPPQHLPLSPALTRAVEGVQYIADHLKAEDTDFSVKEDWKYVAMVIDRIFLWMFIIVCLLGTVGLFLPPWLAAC
T7 sequence (P12390 25-500): as the sequence (P12390 25-500) above
T7 sequence (P04757 26-499): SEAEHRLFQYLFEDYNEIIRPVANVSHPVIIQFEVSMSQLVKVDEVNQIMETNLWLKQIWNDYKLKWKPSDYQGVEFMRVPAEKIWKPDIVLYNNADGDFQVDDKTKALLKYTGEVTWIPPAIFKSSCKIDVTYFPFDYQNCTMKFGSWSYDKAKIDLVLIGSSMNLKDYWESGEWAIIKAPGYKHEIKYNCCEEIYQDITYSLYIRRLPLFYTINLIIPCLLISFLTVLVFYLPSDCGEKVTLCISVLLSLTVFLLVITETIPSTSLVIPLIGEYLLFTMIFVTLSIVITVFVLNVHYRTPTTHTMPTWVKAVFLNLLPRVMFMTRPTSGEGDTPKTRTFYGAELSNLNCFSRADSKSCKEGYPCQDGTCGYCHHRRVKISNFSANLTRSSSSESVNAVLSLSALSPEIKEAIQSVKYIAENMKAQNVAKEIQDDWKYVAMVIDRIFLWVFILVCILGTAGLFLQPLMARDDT
T2 sequence (P12390 25-500): as the sequence (P12390 25-500) above
T2 sequence (P12389 28-511): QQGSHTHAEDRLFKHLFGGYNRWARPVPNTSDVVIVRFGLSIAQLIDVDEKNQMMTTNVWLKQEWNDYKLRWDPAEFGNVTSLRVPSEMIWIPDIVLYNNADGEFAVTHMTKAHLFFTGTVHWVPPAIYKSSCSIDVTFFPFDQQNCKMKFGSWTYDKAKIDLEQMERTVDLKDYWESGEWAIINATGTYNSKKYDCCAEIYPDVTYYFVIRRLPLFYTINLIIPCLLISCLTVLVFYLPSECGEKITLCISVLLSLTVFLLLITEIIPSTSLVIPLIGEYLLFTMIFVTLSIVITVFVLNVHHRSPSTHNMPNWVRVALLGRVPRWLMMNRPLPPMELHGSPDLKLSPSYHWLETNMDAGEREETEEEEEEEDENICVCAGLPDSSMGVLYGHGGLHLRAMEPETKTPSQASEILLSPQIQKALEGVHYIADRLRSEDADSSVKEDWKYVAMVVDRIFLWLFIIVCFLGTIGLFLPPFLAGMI
T5 sequence (P12392 21-495): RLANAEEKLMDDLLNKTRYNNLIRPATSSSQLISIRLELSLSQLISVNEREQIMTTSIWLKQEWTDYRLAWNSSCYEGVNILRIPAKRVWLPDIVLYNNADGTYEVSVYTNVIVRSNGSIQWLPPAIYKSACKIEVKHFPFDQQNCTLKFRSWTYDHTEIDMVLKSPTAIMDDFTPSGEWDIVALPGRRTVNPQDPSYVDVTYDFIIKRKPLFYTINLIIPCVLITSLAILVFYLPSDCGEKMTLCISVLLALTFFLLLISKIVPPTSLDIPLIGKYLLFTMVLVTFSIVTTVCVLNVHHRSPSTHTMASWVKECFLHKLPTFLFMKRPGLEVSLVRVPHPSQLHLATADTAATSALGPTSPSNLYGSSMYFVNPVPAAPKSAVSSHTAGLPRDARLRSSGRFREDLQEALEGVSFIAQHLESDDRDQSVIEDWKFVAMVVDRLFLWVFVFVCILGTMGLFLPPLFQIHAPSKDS
T5 sequence (P09483 31-630): as the sequence (P09483 31-630) above
T3 sequence (P12389 28-511): as the sequence (P12389 28-511) above
T3 sequence (P12392 21-495): as the sequence (P12392 21-495) above
T6 sequence (P04757 26-499): as the sequence (P04757 26-499) above
T6 sequence (P12392 21-495): as the sequence (P12392 21-495) above
T1 sequence (P09483 31-630): as the sequence (P09483 31-630) above
T1 sequence (P12390 25-500): as the sequence (P12390 25-500) above

SMILES | Ki [1] [nM] | Ki (α2β2 nAChR subtype) [nM] | Ki (α2β4 nAChR subtype) [nM] | Ki (α4β2 nAChR subtype) [nM] | Ki (α4β4 nAChR subtype) [nM] | Ki (α3β4 nAChR subtype) [nM] | Ki (α3β2 nAChR subtype) [nM] | Ki [1, 2] [nM] | Ki (α2β2 nAChR subtype; [3]) [nM] | Ki (α2β4 nAChR subtype; [4]) [nM] | Ki (α4β2 nAChR subtype; [6]) [nM] | Ki (α3β4 nAChR subtype; [9]) [nM] | Ki (α3β2 nAChR subtype; [11]) [nM] | Ki (α4β4 nAChR subtype; [13]) [nM] | other results
CN1CCC[C@H]1COc1cncc(C#CC(C)(C)O)c1 [Ligand 15] | 8.39 | 1.93 | 5890 | 1.34 | 5060 | 32600 | 19.7 |  |  |  |  |  |  |  | 
Clc1ccc2c(n1)CCC21CC2CCC1N2 (stereo not drawn) [Ligand 58b] |  |  |  |  |  |  |  | 12100 | 2460 | 7090 | 5050 | 14900 | 3660 |  | Ki (α2β4 nAChR subtype; [5]): 7180 nM; Ki (α4β2 nAChR subtype; [7]): 6990 nM; Ki (α4β4 nAChR subtype; [8]): 9460 nM; Ki (α4β4 nAChR subtype; Table 5, rat nAChR subtypes, read-out: Ki α4β4): 9560 nM; Ki (α3β4 nAChR subtype; [10]): 13800 nM; Ki (α3β2 nAChR subtype; [12]): 4070 nM
COC(=O)c1nc(Cl)ccc1C1CC2CCC1N2 (stereo not drawn) [ZW-96] |  |  |  |  |  |  |  | 18400 | 5410 | 28100 | 7870 | 10700 | 5510 | 46500 | 
CN1CCC[C@H]1COc1cncc(C#CCO)c1 [Ligand 14] |  |  |  |  |  |  |  |  |  |  |  |  |  |  | Ki ([1]; Ki Rat forebrain, Table 1, mean of 3 (1, 2: 3 to 6) independent measurements): 3.16 nM; Ki (α2β2 nAChR subtype; Ki α2β2, Table 1, mean of 3 (1, 2: 3 to 6) independent measurements): 2.43 nM; Ki (α2β4 nAChR subtype; Ki α2β4, Table 1, mean of 3 (1, 2: 3 to 6) independent measurements): 1880 nM; Ki (α4β2 nAChR subtype; Ki α4β2, Table 1, mean of 3 (1, 2: 3 to 6) independent measurements): 0.954 nM; Ki (α4β4 nAChR subtype; Ki α4β4, Table 1, mean of 3 (1, 2: 3 to 6) independent measurements): 1690 nM; Ki (α3β4 nAChR subtype; Ki α3β4, Table 1, mean of 3 (1, 2: 3 to 6) independent measurements): 18200 nM; Ki (α3β2 nAChR subtype; Ki α3β2, Table 1, mean of 3 (1, 2: 3 to 6) independent measurements): 7.64 nM
Clc1ccc(C2CC3CCC2N3CCN2C3CCC2CC3)cn1 (stereo not drawn) [ZW-84] |  |  |  |  |  |  |  | 112 | 7.08 | 16.6 | 21.9 | 67.6 | 21.1 | 84.5 | 
OCCCCC#Cc1cncc(OC[C@@H]2CCCN2)c1 [Ligand 27, 5-(6-Hydroxy-1-hexynyl)-3-(2(S)-pyrrolidinylmethoxy)pyridine] |  |  |  |  |  |  |  | 1.15 | 1.51 | 835 | 0.665 | 16100 | 2.69 | 778 | 
Clc1ccc2c(n1)CCC1C3CCC(N3)C21 (stereo not drawn) [Ligand 37b] |  |  |  |  |  |  |  | 576 |  |  | 210 |  | 541 | 39.8 | Ki (α2β2 nAChR subtype; Table 3, mean ± SEM of 3 (nicotine, 1: 3 to 6) independent measurements, read-out: Ki α2β2): 59 nM; Ki (α2β2 nAChR subtype; Table 5, rat nAChR subtypes, read-out: Ki α2β2): 59.4 nM; Ki (α2β4 nAChR subtype; [5]): 32 nM; Ki (α2β4 nAChR subtype; Table 5, rat nAChR subtypes, read-out: Ki α2β4): 32.2 nM; Ki (α4β2 nAChR subtype; [7]): 295 nM; Ki (α4β4 nAChR subtype; [8]): 41 nM; Ki (α3β4 nAChR subtype; [10]): 201 nM; Ki (α3β4 nAChR subtype; Table 5, rat nAChR subtypes, read-out: Ki α3β4): 201 nM; Ki (α3β2 nAChR subtype; [12]): 530 nM
O=C1CC2NC1CC2c1ccc(Cl)nc1 (stereo not drawn) [Ligand 4, 2-exo-(2-Chloro-5-pyridyl)-7-azabicyclo[2.2.1]heptan-5-one] |  |  |  |  |  |  |  | 4570 | 642 | 1140 | 7080 | 4430 | 1890 | 3240 | 
O=c1cccc2n1C[C@H]1C[C@@H]2CN(CCCOc2cccnc2)C1 [ZW-17] | 4550 | 2980 | 14000 | 3110 | 3230 | > 10000 | > 1000 |  |  |  |  |  |  |  | 
O=c1cccc2n1C[C@H]1C[C@@H]2CN(CCCCl)C1 [ZW-16] | 1500 | 1340 | 2630 | 571 | 732 | > 10000 | > 1000 |  |  |  |  |  |  |  | 
